Counter-ions that a name gives are not always drawn. Like-named read-outs stand apart in the source and are kept apart here.

Results on two compounds are retold here after patent publication US20100168102A9, “Amide Derivatives as Kinase Inhibitors” (Devgen NV, priority 2005, published 2010).

One assay deals with T1, PKC epsilon (Homo sapiens, UniProt Q02156).
T1 construct: purchased Invitrogen P2282
T1 sequence (Q02156 1-737): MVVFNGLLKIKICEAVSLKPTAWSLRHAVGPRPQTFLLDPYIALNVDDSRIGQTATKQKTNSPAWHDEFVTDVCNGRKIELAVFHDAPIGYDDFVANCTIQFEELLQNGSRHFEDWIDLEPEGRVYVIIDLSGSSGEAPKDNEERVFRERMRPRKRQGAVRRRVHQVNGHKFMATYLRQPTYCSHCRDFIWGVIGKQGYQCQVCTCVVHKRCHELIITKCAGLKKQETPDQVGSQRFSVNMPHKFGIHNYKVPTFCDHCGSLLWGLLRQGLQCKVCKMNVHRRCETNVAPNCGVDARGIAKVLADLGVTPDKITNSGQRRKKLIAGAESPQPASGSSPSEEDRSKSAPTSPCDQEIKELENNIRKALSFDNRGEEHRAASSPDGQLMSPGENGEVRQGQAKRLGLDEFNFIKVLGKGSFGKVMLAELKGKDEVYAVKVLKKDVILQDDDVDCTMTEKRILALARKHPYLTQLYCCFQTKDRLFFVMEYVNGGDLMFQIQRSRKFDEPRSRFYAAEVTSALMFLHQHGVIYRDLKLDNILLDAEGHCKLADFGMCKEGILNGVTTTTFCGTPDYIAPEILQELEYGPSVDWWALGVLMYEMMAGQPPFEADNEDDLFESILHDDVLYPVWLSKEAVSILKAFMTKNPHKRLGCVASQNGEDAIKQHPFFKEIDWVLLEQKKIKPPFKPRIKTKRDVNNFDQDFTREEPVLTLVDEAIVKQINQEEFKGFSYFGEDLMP
The experiment in a line: Biochemical assay for PKC epsilon (fluorescence polarization, Protein Kinase C Assay Kit, Red). The settings on record: read-out: IC50 μM PKCε. The procedure, abridged: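 Read-out was fluorescence-polarization competition between phosphorylated substrate and a rhodamine PKC tracer for an anti-phosphoserine antibody, added with EDTA stop after an 80 min room-temperature kinase reaction with ATP and protein substrate (Mg2+/Ca2+ buffer). Enzyme (10 ng/ml final) was preincubated with compound for 30 min.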

The target in another assay is T2, PKC theta (Homo sapiens, UniProt Q04759).
T2 construct: purchased Invitrogen P2996
T2 sequence (Q04759 whole entry): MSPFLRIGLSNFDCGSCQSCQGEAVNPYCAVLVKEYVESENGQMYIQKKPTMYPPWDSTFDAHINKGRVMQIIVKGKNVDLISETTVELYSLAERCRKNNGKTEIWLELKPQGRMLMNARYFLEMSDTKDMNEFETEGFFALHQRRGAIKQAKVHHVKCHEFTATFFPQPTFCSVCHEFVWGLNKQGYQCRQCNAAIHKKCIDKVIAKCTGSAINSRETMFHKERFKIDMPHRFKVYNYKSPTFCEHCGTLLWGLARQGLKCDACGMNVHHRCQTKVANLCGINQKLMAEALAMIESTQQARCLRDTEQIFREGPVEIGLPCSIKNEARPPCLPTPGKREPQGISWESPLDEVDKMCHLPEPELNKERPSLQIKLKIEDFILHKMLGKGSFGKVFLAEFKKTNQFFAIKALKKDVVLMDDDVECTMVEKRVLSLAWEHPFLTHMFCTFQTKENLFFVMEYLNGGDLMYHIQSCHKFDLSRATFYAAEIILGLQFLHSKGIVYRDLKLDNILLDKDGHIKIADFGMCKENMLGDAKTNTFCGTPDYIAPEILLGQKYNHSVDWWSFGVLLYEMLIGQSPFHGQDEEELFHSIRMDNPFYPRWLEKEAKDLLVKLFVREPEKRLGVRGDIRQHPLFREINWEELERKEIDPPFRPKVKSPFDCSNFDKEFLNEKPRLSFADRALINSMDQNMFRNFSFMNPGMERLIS
The experiment in a line: Biochemical assay for PKC theta (fluorescence polarization, Protein Kinase C Assay Kit, Red). On the procedure: The compounds were tested for inhibition of PKC theta.
The inhibition assays were performed with a fluorescence polarization (FP) assay using the commercially available Protein Kinase C Assay Kit, Red, from Invitrogen (Product ID. No. P2941), essentially in accordance with the protocol supplied by the manufacturer. The substrate used was […] (Mw 1561), also obtained from Invitrogen (Product ID No. P2760). The isozyme PKC theta was also obtained from Invitrogen (Product ID No. P2996).
Staurosporine was used as a positive control (2 μM).
To perform the assay, 2 μl, of a solution of the compound to be tested in DMSO (at each concentration) was added to 6 μl of a solution of the enzyme in 10 mM HEPES, 5 mM dithiotreitol, 0.1% Triton X-100, pH 7.4. The final concentration of the enzymes was 60 ng/ml.
After incubating for 30 minutes at room temperature, 4 μl of a mixture of ATP and the protein substrate in 60 mM HEPES (pH7.4), 15 mM MgCl2, 0.3 mM CaCl2, 0.06% NP40 was added. The final concentration of the ATP was 2.5 μM and final concentration of protein substrate was 1 μM.
After incubating for 80 minutes at room temperature, 3 μl of a mix solution of 500 mM EDTA (stop solution) and the Rhodamine-based PKC Red Tracer (from the Protein Kinase C Assay Kit) in BGG/phosphate buffer (pH7.4) with 0.02% NaN3 and 0.1% Triton X-100 was added and 5 μl of a the Anti-Phosphoserine antibody (also from the Protein Kinase C Assay Kit) in BGG/phosphate buffer (pH7.4) with 0.02% NaN3.
The mixture thus obtained (total volume: 20 μl) was incubated for 60 minutes at room temperature, upon which the fluorescence polarization was measured using an automated plate reader (Perkin Elmer, Model Envision 2100-0010 HTS) with FP filters for rhodamine: excitation fitter FITC FP 531 and emission filters FITC FP P-pol 595 and FITC FP S-pol 595 (Perkin-Elmer). The results were fitted to a curve using the XL-Fit algorithm and IC50 values were calculated for each fitted curve, again using the XL-Fit algorithm.

A further assay has as its target T3, human ROCKα/ROCKII mix (Homo sapiens, UniProt O75116).
T3 construct: purchased Upstate Biotechnology 14-451
Description: Biochemical assay for ROCK (fluorescence polarization, ROCK IMAP Kit). A general note: Polarisation of emitted light reports the rotation of a fluorescent probe.

For another assay, the system named is PKCε. Description: Reporter assay (PathDetect trans reporter, Elk/SEAP) in reporter cell-lines over-expressing PKCε. Type of assay: cell-based. From the text: Whereas the reporter assay is focused on PKCε specific inhibition in a recombinant system, the monocytes assay is a biomarker assay that can be performed in isolated monocytes, full blood and in vivo to follow the pharmacological reduction of cytokine production:
The reporter assay exploits the effect of over-expressed PKCε on kinase activation and phosphorylation of a transcription factor to evaluate the potency and selectivity of PKCε inhibitors in a cellular context.
It has been shown by jae-Won Soh et al (MCB, February 1999 p 1313-1324) that over-expression of PKC epsilon results in the activation of MAPK-pathway (c-raf/MEK/ERK) leading to the activation of Elk transcription factor. This event can be monitored using the PathDetect trans reporter assay system (Stratagene): pFA2-ELK codes for a fusion protein between the Gal4 DNA binding domain and the transactivation domain of Elk which drives the expression of a secreted alkaline phosphatase (SEAP) reporter gene.
Compounds are incubated with reporter cell-lines either over-expressing PKCε, leading to continued activation of the kinase, or mock transfected cells. Inhibition of the PKCε induced signal in the absence of an effect on the basal level (mock transfected cells) is indicative for selective PKCε inhibition.
(Reporter assays use an easily measured gene product as a stand-in for the process of interest.)

Where [1] appears, read: Table 2, compounds of Formula XIII.

T3 sequence (O75116 11-552 limits assumed): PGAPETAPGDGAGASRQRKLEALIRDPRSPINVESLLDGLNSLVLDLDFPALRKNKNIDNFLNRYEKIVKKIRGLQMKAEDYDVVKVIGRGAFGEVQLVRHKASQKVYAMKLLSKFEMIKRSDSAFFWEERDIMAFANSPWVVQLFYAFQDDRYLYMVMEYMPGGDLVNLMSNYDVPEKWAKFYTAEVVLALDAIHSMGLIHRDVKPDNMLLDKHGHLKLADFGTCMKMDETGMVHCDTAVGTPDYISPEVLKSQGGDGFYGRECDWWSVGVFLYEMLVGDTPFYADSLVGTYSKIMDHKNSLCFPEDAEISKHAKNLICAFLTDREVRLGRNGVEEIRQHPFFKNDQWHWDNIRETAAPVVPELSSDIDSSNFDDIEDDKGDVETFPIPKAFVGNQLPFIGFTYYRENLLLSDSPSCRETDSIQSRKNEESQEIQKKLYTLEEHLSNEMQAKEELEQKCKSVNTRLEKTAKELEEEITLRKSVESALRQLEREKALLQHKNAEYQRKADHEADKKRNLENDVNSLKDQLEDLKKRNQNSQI

On to `CC(C)(C(=O)NCC(N)c1ccc(C(=O)Nc2ccncc2)cc1)c1ccc(F)cc1` (centres unmarked) [Compound 339, 4-{1-Amino-2-[2-(4-fluoro-phenyl)-2-methyl-propionylamino]-ethyl}-N-pyridin-4-yl-benzamide], for which the IC50 – broadly, the point on the concentration scale where inhibition reaches its midpoint – at PKC epsilon (setting [1]) is less than 0.05 µM; against PKC theta, less than 0.05 µM; against human ROCKα/ROCKII mix (setting [1]), 0.05 to 0.5 µM; with PKCε, less than 5 µM.
As for `CC(C)(C(=O)NC[C@@H](N)c1ccc(C(=O)Nc2ccncc2)cc1)c1ccc(Cl)cc1` [Compound 399, 4-{(S)-1-Amino-2-[2-(4-chloro-phenyl)-2-methyl-propionylamino]-ethyl}-N-pyridin-4-yl-benzamide dihydrochloric acid salt], the IC50 at PKC epsilon was less than 0.05 µM; at PKC theta, less than 0.05 µM; against human ROCKα/ROCKII mix, 0.05 to 0.5 µM; in the assay with PKCε it was less than 5 µM.
